Reference: patent publication EP1000543A1, “A method for inducing resistance of plants to mycotoxin-producing fungi” (PROGUARD, INC., priority 1994, dated 1996)

What was measured:
[1] = test system: Fusarium subglutinans f. sp. pini; test: bioassay based on inhibition of radial growth on potato dextrose agar (colony diameter); type: cell-based, Fusarium subglutinans f. sp. pini (isolate SL-1, UCB); details: for Radical Growth of Fusarium subglutinas f.sp. pini (colony diameter): 18° C, 5 days; for radical growth of Fusarium subglutinans: cinnamic aldehyde in vehicle with or without saponin, glutaraldehyde 2%
Method: A bioassay based on inhibition of radial growth of Fusarium subglutinans f. sp. pini was used to test various aldehyde formulations. The bioassay was performed in a double blind fashion under sterile conditions. All concentrations given are those of particular solutions before dilution in the agar. Eight ml of test formulation was pipetted into 200 ml of molten 2% potato dextrose agar (DIFCO), and the mixture was dispersed into 5 plastic petri dishes (25 ml dish). Test formulations of 5 ppm benomyl were used as a positive control and sterile H2O as a negative control. Each of four plates was inoculated at the center with an agar plug transferred from a growing PDA culture of Fusarium subglutinans f. sp. pini (isolate SL-1, UCB) for each test formulation. A fifth plate was left noninoculated as a control for inhibited growth.
All inoculated and non-inoculated plates were incubated at 18° C for 5 days, after which colony diameters were measured. […] No growth of the colony (diameter=0) indicates a maximum growth inhibition.

[2] = vapor pressure; type: physicochemical; details: at 25°C
[3] = at 25°C; cited from earlier work

## cinnamic aldehyde
[1]; Cinnamic Aldehyde 10 ppm in 2% Tween 80, 6% NaHCO3, with Saponin
  Radical Growth of Fusarium subglutinas f.sp. pini (colony diameter): 4.088
[1]; Cinnamic Aldehyde 10 ppm in 2% Tween 80, 6% NaHCO3, no additive, concentration before dilution in agar
  Radical Growth of Fusarium subglutinas f.sp. pini (colony diameter): 4.363
[1]; Cinnamic Aldehyde 100 ppm in 2% Tween 80, 6% NaHCO3, with Saponin
  Radical Growth of Fusarium subglutinas f.sp. pini (colony diameter): 4.300
[1]; Cinnamic Aldehyde 100 ppm in 2% Tween 80, 6% NaHCO3, no additive, concentration before dilution in agar
  Radical Growth of Fusarium subglutinas f.sp. pini (colony diameter): 4.238
[1]; Cinnamic Aldehyde 2,500 ppm in 2% Tween 80, 6% NaHCO3, with Saponin
  Radical Growth of Fusarium subglutinas f.sp. pini (colony diameter): 3.600
[1]; Cinnamic Aldehyde 2,500 ppm in 2% Tween 80, 6% NaHCO3, no additive, concentration before dilution in agar
  Radical Growth of Fusarium subglutinas f.sp. pini (colony diameter): 3.513
[1]; Cinnamic Aldehyde 5000 ppm in 2% Tween 80, 6% NaHCO3, with Saponin
  Radical Growth of Fusarium subglutinas f.sp. pini (colony diameter): 2.913
[1]; Cinnamic Aldehyde 5000 ppm in 2% Tween 80, 6% NaHCO3, no additive, concentration before dilution in agar
  Radical Growth of Fusarium subglutinas f.sp. pini (colony diameter): 2.980
[1]; Cinnamic Aldehyde 12,500 ppm in 2% Tween 80, 6% NaHCO3, with Saponin
  Radical Growth of Fusarium subglutinas f.sp. pini (colony diameter): 0
[1]; Cinnamic Aldehyde 12,500 ppm in 2% Tween 80, 6% NaHCO3, no additive, concentration before dilution in agar
  Radical Growth of Fusarium subglutinas f.sp. pini (colony diameter): 0
[1]; Cinnamic Aldehyde 25,000 ppm in 2% Tween 80, 6% NaHCO3, with Saponin
  Radical Growth of Fusarium subglutinas f.sp. pini (colony diameter): 0
[1]; Cinnamic Aldehyde 25,000 ppm in 2% Tween 80, 6% NaHCO3, no additive, concentration before dilution in agar
  Radical Growth of Fusarium subglutinas f.sp. pini (colony diameter): 0
[1]; result in words, at 12,500 ppm
  Radial growth: completely inhibited
[1]; result in words
  radical growth of Fusarium subglutinans: inhibited
[2]
  vapor pressure relative to HCA: approximately 40 times higher
[3]
  vapor pressure: 2970 x 10^-5 mm Hg

## CCCCCCC(C=O)=Cc1ccccc1 [HCA, 2-hexyl-3-phenyl-2-propenal]
[3]
  vapor pressure: 70 x 10^-5 mm Hg

## CCCCNC(=O)n1c(NC(=O)OC)nc2ccccc21 [Benomyl, reference compound]
[1]; positive control, 5 ppm benomyl, no Cinnamic Aldehyde
  Radical Growth of Fusarium subglutinas f.sp. pini (colony diameter): 0

## O=CCCCC=O [Glutaraldehyde, reference compound]
[1]; 2% glutaraldehyde, no Cinnamic Aldehyde
  Radical Growth of Fusarium subglutinas f.sp. pini (colony diameter): 3.663
[1]; result in words
  radical growth of Fusarium subglutinans: inhibited

## CCN(CC)c1cccc(C)c1 [N,N-diethyl-m-toluamine, reference compound]
[3]
  vapor pressure: 167 x 10^-5 mm Hg
